T/C data for 18 molecules are collected here from PubChem BioAssay AID276 (DTP/NCI, 2004).

Values joined by “and” are separate entries in the source; they are usually repeats but may differ in a detail not shown here. Identical values can stand only once. Toxic doses and inconclusive results are not listed.

This test deals with B6C3F1 mice, Lewis lung carcinoma iv, survival T/C. As to the kind of experiment: NCI In Vivo Anticancer Drug Screen. Data for tumor model Lewis Lung Carcinoma (intravenous) in B6C3F1 mice. Conditions: endpoint: median survival time, schedule: Q01DX009 (ip), higher = longer survival. In short, it runs like this:
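Mice carrying transplanted tumors received test compound; survival in the treated group was divided by that of the vehicle-treated control group to give the T/C value.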

Setting [1] is: dose: 6.25 mg/kg/injection, vehicle: other.
[2] abbreviates: dose: 12.5 mg/kg/injection, vehicle: other.
The mark [3] stands for this setting: dose: 25.0 mg/kg/injection, vehicle: other.
[4] abbreviates: dose: 0.5 mg/kg/injection, vehicle: saline.
Setting [5] is: dose: 6.25 mg/kg/injection, vehicle: saline with Tween-80.
Setting [6] is: dose: 12.5 mg/kg/injection, vehicle: saline with Tween-80.
[7] abbreviates: dose: 25.0 mg/kg/injection, vehicle: saline with Tween-80.
Where [8] appears, read: dose: 50.0 mg/kg/injection, vehicle: saline with Tween-80.
[9] abbreviates: dose: 100.0 mg/kg/injection, vehicle: saline with Tween-80.
[10] abbreviates: dose: 1.0 mg/kg/injection, vehicle: saline.
Where [11] appears, read: dose: 12.5 mg/kg/injection, vehicle: saline.
[12] abbreviates: dose: 25.0 mg/kg/injection, vehicle: saline.
Where [13] appears, read: dose: 50.0 mg/kg/injection, vehicle: saline.
The mark [14] stands for this setting: dose: 100.0 mg/kg/injection, vehicle: saline.
Where [15] appears, read: dose: 6.25 mg/kg/injection, vehicle: saline.
[16] abbreviates: dose: 100.0 mg/kg/injection, vehicle: Klucel (hydroxypropylcellulose) (HPC).
The mark [17] stands for this setting: dose: 200.0 mg/kg/injection, vehicle: Klucel (hydroxypropylcellulose) (HPC).

On to `CC(C)[C@](O)(C(=O)OCC1=CCN2CC[C@@H](O)[C@@H]12)[C@H](C)O`, for which the T/C by setting is: (dose: 25.0 mg/kg/injection, vehicle: water) 100 % of control; (dose: 50.0 mg/kg/injection, vehicle: water) 97 % of control; (dose: 100.0 mg/kg/injection, vehicle: water) 100 % of control; (dose: 200.0 mg/kg/injection, vehicle: water) 109 % of control; (dose: 400.0 mg/kg/injection, vehicle: water) 102 % of control.

Take `C[C@@](O)(/C=C/[C@H]1CC=CC(=O)O1)[C@@H](C[C@@H](O)\C=C/C=C\C=C\CO)OP(=O)(O)O`: the T/C reads like this: (dose: 1.56 mg/kg/injection, vehicle: other) 93 % of control; (dose: 3.12 mg/kg/injection, vehicle: other) 91 % of control and 93 % of control and 100 % of control; under setting [1], 92 % of control and 95 % of control and 98 % of control; under setting [2], 100 % of control and 103 % of control (2×); under setting [3], 114 % of control.

With `CC1OC(OC2CC(O)(C(=O)CO)Cc3c(O)c4c(c(O)c32)C(=O)c2ccccc2C4=O)CC(N)C1O` (centres undefined), the T/C was 110 % of control (dose: 0.06 mg/kg/injection, vehicle: water); 105 % of control (dose: 0.12 mg/kg/injection, vehicle: other); 108 % of control (dose: 0.12 mg/kg/injection, vehicle: saline); 122 % of control (dose: 0.12 mg/kg/injection, vehicle: water); 113 % of control (dose: 0.25 mg/kg/injection, vehicle: other); 103 % of control (dose: 0.25 mg/kg/injection, vehicle: saline). Moreover, the T/C reads like this: (dose: 0.25 mg/kg/injection, vehicle: water) 112 % of control; under setting [4], 110 % of control; (dose: 0.5 mg/kg/injection, vehicle: water) 120 % of control; (dose: 1.0 mg/kg/injection, vehicle: water) 173 % of control.

`C=C/C(C)=C/[C@H](C)C(=O)C[C@H](O)CC1CC(=O)NC(=O)C1`: the T/C by setting is: under setting [1], 96 % of control; under setting [2], 96 % of control; under setting [3], 97 % of control; (dose: 50.0 mg/kg/injection, vehicle: other) 92 % of control; (dose: 100.0 mg/kg/injection, vehicle: other) 96 % of control; (dose: 200.0 mg/kg/injection, vehicle: other) 100 % of control.

Turning to `O=Cc1c(O)c2ccccc2[nH]c1=O`, the T/C under setting [5] is 107 % of control; the T/C under setting [6] is 105 % of control; the T/C under setting [7] is 113 % of control; the T/C under setting [8] was 107 % of control; the T/C under setting [9] is 116 % of control.

On to `NC(=O)c1ccc(N)nc1`, for which the T/C under setting [4] was 115 % of control and the T/C under setting [10] was 115 % of control.

As for `c1cc[c]([Sn]([NH]c2ncnc3[nH]cnc23)([NH]c2ncnc3[nH]cnc23)[c]2ccccc2)cc1`, the T/C was 103 % of control under setting [11]; 95 % of control under setting [12]; 106 % of control under setting [13]; 107 % of control under setting [14]; 98 % of control (dose: 200.0 mg/kg/injection, vehicle: saline).

Consider `CN(C)C1C(=O)C(C(=O)NP(=O)(NCCCO)N(CCCl)CCCl)=C(O)C2(O)C(=O)C3=C(O)c4c(O)cccc4C(C)(O)C3CC12` (centres undefined), for which the T/C by setting is: under setting [7], 104 % of control; under setting [8], 119 % of control; under setting [9], 93 % of control.

Take `CC1/C=C/C=C/CC/C=C/C=C/C=C/C=C/C(OC2OC(C)C(O)C(N)C2O)CC2OC(CC(O)C(O)CCC(O)CC(O)CC(O)CC(=O)OC(C)C(C)C1O)CC(O)C2C(=O)O` (centres undefined): the T/C by setting is: under setting [5], 103 % of control; under setting [6], 103 % of control; under setting [7], 98 % of control; under setting [8], 101 % of control.

Take `O=C(O)C1CSCN1` (centres undefined): the T/C is, setting by setting: (dose: 3.12 mg/kg/injection, vehicle: saline) 99 % of control; under setting [15], 108 % of control; under setting [11], 100 % of control; under setting [12], 101 % of control; under setting [13], 101 % of control; under setting [14], 106 % of control.

With `NC(=S)c1cn(C2OC(CO)C(O)C2O)c2ncnc(N)c12` (centres undefined), the T/C (dose: 0.62 mg/kg/injection, vehicle: suspension in saline) was 100 % of control; the T/C (dose: 1.25 mg/kg/injection, vehicle: suspension in saline) was 90 % of control; the T/C (dose: 2.5 mg/kg/injection, vehicle: suspension in saline) is 99 % of control; the T/C (dose: 5.0 mg/kg/injection, vehicle: suspension in saline) was 94 % of control.

In the case of `Cn1/c2cc/c1=C(\c1ccc(S(=O)(=O)O)cc1)c1ccc([n-]1)/C(c1ccc(S(=O)(=O)O)cc1)=c1/cc/c([nH]1)=C(\c1ccc(S(=O)(=O)O)cc1)c1ccc([n-]1)/C=2c1ccc(S(=O)(=O)O)cc1.O.O=S(=O)(O)C(F)(F)F.[Cu+2]`, the T/C was 109 % of control under setting [15], 112 % of control under setting [11], 116 % of control under setting [12] and 112 % of control under setting [13].

For the molecule `Cn1cc(C2NC(=O)c3ccccc3N2)c2ccccc21` (centres undefined), the T/C reads like this: (dose: 25.0 mg/kg/injection, vehicle: Klucel (hydroxypropylcellulose) (HPC)) 104 % of control; (dose: 50.0 mg/kg/injection, vehicle: Klucel (hydroxypropylcellulose) (HPC)) 105 % of control; under setting [16], 100 % of control; under setting [17], 104 % of control.

Take `COC(=O)Nc1cn2ccc(C(Cl)=C(Cl)Cl)cc2n1`: the T/C reads like this: under setting [16], 116 % of control; under setting [17], 103 % of control.

As for `CC(C)=CC(=O)OC1C2C(C)=CC(=O)C(O)C2(C)C2C3(O)OCC24C(CC(=O)OC14)C(C)C3O` (centres undefined), the T/C runs as follows: (dose: 0.25 mg/kg/injection, vehicle: distilled water + Tween-80) 107 % of control; (dose: 0.5 mg/kg/injection, vehicle: distilled water + Tween-80) 98 % of control; (dose: 1.0 mg/kg/injection, vehicle: distilled water + Tween-80) 102 % of control; (dose: 2.0 mg/kg/injection, vehicle: distilled water + Tween-80) 98 % of control.

As to `Nc1ccn(C2OC(CO)C(O)C2O)c(=O)n1` (centres undefined), the T/C under setting [10] was 98 % of control; the T/C (dose: 2.0 mg/kg/injection, vehicle: saline) is 97 % of control; the T/C (dose: 4.0 mg/kg/injection, vehicle: saline) was 100 % of control; the T/C (dose: 15.0 mg/kg/injection, vehicle: saline) is 110 % of control; the T/C under setting [13] is 160 % of control; the T/C under setting [14] is 203 % of control.

With `O=C1NC(=O)C2C3C=CC(C12)C1C2C(=O)NC(=O)C2C31` (centres undefined), the T/C was 96 % of control and 105 % of control under setting [6]; 95 % of control and 102 % of control under setting [7]; 99 % of control under setting [8]; 96 % of control under setting [9]; 91 % of control (dose: 200.0 mg/kg/injection, vehicle: saline with Tween-80).

For the molecule `NC(C(=O)O)c1ccc(CBr)cc1` (centres undefined), the T/C reads like this: under setting [6], 97 % of control; under setting [7], 100 % of control; under setting [8], 105 % of control; under setting [9], 93 % of control.
